Test results taken from US10294202B2, “Pyrrolidinones as herbicides” (FMC Corporation, priority 2013, dated 2019).

Tests used:
[1] = system: kochia; test: Test A pre-/postemergence herbicide test; format: in vivo, Kochia scoparia
Outline: (§1)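 Directed soil spray to seeded pots (preemergence) or spray onto one- to two-leaf seedlings 2–10 cm tall (postemergence); loam/sand substrate throughout. Evaluated visually after about 10 days against untreated plants, 0 = no effect, 100 = complete control.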

[2] = system: ragweed; test: Test A pre-/postemergence herbicide test; format: in vivo, Ambrosia elatior
Outline: as §1

[3] = system: giant foxtail; test: Test A pre-/postemergence herbicide test; format: in vivo, Setaria faberii
Outline: as §1

[4] = system: blackgrass; test: Test A postemergence herbicide test; format: in vivo, Alopecurus myosuroides
Outline: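 Plants at the one- to two-leaf stage, 2–10 cm tall, grown in loam/sand pots, received postemergence sprays of the test chemicals. After about 10 days in the greenhouse, injury was scored visually against untreated controls on a 0–100 scale (0 none, 100 complete control).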

[5] = system: ryegrass, Italian; test: Test C pre-/postemergence herbicide test; format: in vivo, Lolium multiflorum
Outline: (§2)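 Two application timings ran in parallel with identically formulated test chemicals (non-phytotoxic solvent, surfactant included): spray on seeded loam–sand soil, and spray on emerged plants 2 to 18 cm high. Evaluation at 13 to 15 days compared each species with controls, rated from 0 up to 100.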

[6] = system: ragweed; test: Test C pre-/postemergence herbicide test; format: in vivo, Ambrosia elatior
Outline: as §2

[7] = system: oat, wild; test: Test C pre-/postemergence herbicide test; format: in vivo, Avena fatua; conditions: Postemergence
Outline: as §2

[8] = system: velvetleaf; test: Test C pre-/postemergence herbicide test; format: in vivo, Abutilon theophrasti
Outline: as §2

[9] = Postemergence, 125 g ai/ha, visual rating on 0 to 100 scale (0 no effect, 100 complete control), approx. 10 days
[10] = Postemergence, 500 g ai/ha, 0 to 100 scale (0 no effect, 100 complete control)
[11] = Preemergence, 125 g ai/ha, 0 to 100 scale where 0 is no effect and 100 is complete control
[12] = Preemergence, 500 g ai/ha, visual rating on 0 to 100 scale (0 no effect, 100 complete control)
[13] = 125 g ai/ha, visual rating on 0 to 100 scale (0 no effect, 100 complete control), approx. 10 days
[14] = 500 g ai/ha, 0 to 100 scale (0 no effect, 100 complete control)
[15] = Postemergence, 31 g ai/ha, scale 0 to 100 (0 no effect, 100 complete control)
[16] = Postemergence, 62 g ai/ha, scale 0 (no effect) to 100 (complete control)
[17] = Postemergence, 125 g ai/ha, scale 0 to 100 (0 no effect, 100 complete control)
[18] = Postemergence, 250 g ai/ha, scale 0 to 100 (0 no effect, 100 complete control)
[19] = Preemergence, 31 g ai/ha, scale 0 to 100, 0 is no effect and 100 is complete control
[20] = Preemergence, 62 g ai/ha, scale 0 to 100 (0 no effect, 100 complete control)
[21] = Preemergence, 125 g ai/ha, scale 0 to 100 (0 no effect, 100 complete control)
[22] = 31 g ai/ha, scale 0 to 100 (0 no effect, 100 complete control)
[23] = 62 g ai/ha, scale 0 (no effect) to 100 (complete control)
[24] = 125 g ai/ha, scale 0 to 100 (0 no effect, 100 complete control)
[25] = Postemergence, 16 g ai/ha, scale 0 to 100 (0 no effect, 100 complete control)
[26] = Preemergence, 16 g ai/ha, scale 0 to 100

What does the source list for CN1CC(c2ccc(F)c(F)c2)C(C(=O)Nc2ccccc2F)C1=O (stereo not shown) [Compound 302]?
Plant response rating, Kochia [1, 9]: 10; Plant response rating, Kochia [1, 10]: 60; Plant response rating, Kochia [1, 11]: 50; Kochia plant response rating [1, 12]: 70; Plant response rating, Ragweed [2, 9]: 0; Plant response rating, Ragweed [2, 10]: 0; Plant response rating, Ragweed [2, 11]: 0; Ragweed plant response rating [2, 12]: 30; Plant response rating, Foxtail, Giant [3, 9]: 80; Plant response rating, Foxtail, Giant [3, 10]: 80; Plant response rating, Foxtail, Giant [3, 11]: 90; Foxtail, Giant plant response rating [3, 12]: 90; Plant response rating, Blackgrass [4, 13]: 40; Plant response rating, Blackgrass [4, 14]: 60; Plant response rating, Ryegrass, Italian [5, 15]: 0; Plant response rating, Ryegrass, Italian [5, 16]: 0; Plant response rating, Ryegrass, Italian [5, 17]: 0; Plant response rating, Ryegrass, Italian [5, 18]: 0; Ryegrass, Italian plant response rating [5, 19]: 0; Ryegrass, Italian plant response rating [5, 20]: 0; Plant response rating, Ryegrass, Italian [5, 21]: 5; Plant response rating (scale of 0 to 100), Ryegrass, Italian ([5]; Preemergence, 250 g ai/ha): 40; Plant response rating, Ragweed [6, 15]: 10; Plant response rating, Ragweed [6, 16]: 20; Plant response rating, Ragweed [6, 17]: 20; Plant response rating, Ragweed [6, 18]: 55; Ragweed plant response rating [6, 19]: 35; Ragweed plant response rating [6, 20]: 5; Plant response rating, Ragweed [6, 21]: 5; Plant response rating (scale of 0 to 100), Ragweed ([6]; Preemergence, 250 g ai/ha): 10; Plant response rating, Oat, Wild [7, 22]: 0; Plant response rating, Oat, Wild [7, 23]: 0; Plant response rating, Oat, Wild [7, 24]: 0; Plant response rating, Oat, Wild ([7]; 250 g ai/ha, scale 0 to 100 (0 no effect, 100 complete control)): 0; Plant response rating, Velvetleaf [8, 15]: 0; Plant response rating, Velvetleaf [8, 16]: 0; Plant response rating, Velvetleaf [8, 17]: 0; Plant response rating, Velvetleaf [8, 18]: 20; Velvetleaf plant response rating [8, 19]: 0; Velvetleaf plant response rating [8, 20]: 0; Plant response rating, Velvetleaf [8, 21]: 0; Plant response rating (scale of 0 to 100), Velvetleaf ([8]; Preemergence, 250 g ai/ha): 0

How did the “Plant response rating, Kochia” value [1, 9] turn out when CN1CC(c2ccc(C(F)(F)F)cc2)C(C(=O)Nc2ccccc2F)C1=O (stereo not shown) [Compound 304] was run?
Its value is 10.

What about the “Plant response rating, Kochia” value [1, 10] of the same molecule?
The value was 80.

And the “Kochia plant response rating” value [1, 12]?
The value was 70.

And the “Plant response rating, Ragweed” value [2, 9]?
The value was 0.

What about the “Plant response rating, Ragweed” value [2, 10] of the same molecule?
Its value is 20.

What about the “Plant response rating, Ragweed” value [2, 11] of the same molecule?
The value was 0.

And the “Plant response rating, Foxtail, Giant” value [3, 9]?
The value was 80.

And the “Plant response rating, Foxtail, Giant” value [3, 10]?
Its value is 80.

And the “Plant response rating, Foxtail, Giant” value [3, 11]?
The value was 90.

What about the “Foxtail, Giant plant response rating” value [3, 12] of the same molecule?
Its value is 90.

What about the “Plant response rating, Blackgrass” value [4, 13] of the same molecule?
Its value is 50.

And the “Plant response rating, Blackgrass” value [4, 14]?
Its value is 70.

What about the “Plant response rating, Ryegrass, Italian” value [5, 25] of the same molecule?
The value was 0.

What about the “Plant response rating, Ryegrass, Italian” value [5, 15] of the same molecule?
Its value is 0.

And the “Plant response rating, Ryegrass, Italian” value [5, 16]?
Its value is 5.

And the “Plant response rating, Ryegrass, Italian” value [5, 17]?
The value was 0.

What about the “Ryegrass, Italian plant response rating” value [5, 19] of the same molecule?
The value was 30.

What about the “Ryegrass, Italian plant response rating” value [5, 20] of the same molecule?
Its value is 75.

What about the “Plant response rating, Ryegrass, Italian” value [5, 21] of the same molecule?
The value was 40.

What about the “Plant response rating, Ryegrass, Italian” value [5, 26] of the same molecule?
Its value is 10.

And the “Plant response rating, Ragweed” value [6, 25]?
The value was 0.

What about the “Plant response rating, Ragweed” value [6, 15] of the same molecule?
Its value is 0.

What about the “Plant response rating, Ragweed” value [6, 16] of the same molecule?
The value was 0.

What about the “Plant response rating, Ragweed” value [6, 17] of the same molecule?
Its value is 35.

What about the “Ragweed plant response rating” value [6, 19] of the same molecule?
The value was 60.

And the “Ragweed plant response rating” value [6, 20]?
The value was 60.

What about the “Plant response rating, Ragweed” value [6, 21] of the same molecule?
Its value is 80.

What about the “Plant response rating, Ragweed” value [6, 26] of the same molecule?
The value was 25.

What about the “Plant response rating, Oat, Wild” value ([7]; 16 g ai/ha, scale 0 to 100 (0 no effect, 100 complete control)) of the same molecule?
The value was 0.

What about the “Plant response rating, Oat, Wild” value [7, 22] of the same molecule?
Its value is 0.

And the “Plant response rating, Oat, Wild” value [7, 23]?
Its value is 0.

What about the “Plant response rating, Oat, Wild” value [7, 24] of the same molecule?
Its value is 0.

And the “Plant response rating, Velvetleaf” value [8, 25]?
Its value is 0.

And the “Plant response rating, Velvetleaf” value [8, 15]?
Its value is 5.

And the “Plant response rating, Velvetleaf” value [8, 16]?
Its value is 15.

What about the “Plant response rating, Velvetleaf” value [8, 17] of the same molecule?
The value was 15.

And the “Velvetleaf plant response rating” value [8, 19]?
Its value is 20.

What about the “Velvetleaf plant response rating” value [8, 20] of the same molecule?
Its value is 35.

What about the “Plant response rating, Velvetleaf” value [8, 21] of the same molecule?
The value was 50.

And the “Plant response rating, Velvetleaf” value [8, 26]?
Its value is 0.
